# Where “and” joins values, the source holds several entries; their conditions need not be identical. Equal entries are not always repeated.
# Tests used:
# Type in all cases: cell-based
# AaegOR13 = target: T1, AaegOR13 (Aedes aegypti, UniProt Q16Z13); assay: Two-electrode voltage clamp of Xenopus laevis oocytes expressing AaegOR13/Orco (blends, unitary compounds, concentration-response); conditions: unitary compounds
# T1 sequence (Q16Z13 1-389): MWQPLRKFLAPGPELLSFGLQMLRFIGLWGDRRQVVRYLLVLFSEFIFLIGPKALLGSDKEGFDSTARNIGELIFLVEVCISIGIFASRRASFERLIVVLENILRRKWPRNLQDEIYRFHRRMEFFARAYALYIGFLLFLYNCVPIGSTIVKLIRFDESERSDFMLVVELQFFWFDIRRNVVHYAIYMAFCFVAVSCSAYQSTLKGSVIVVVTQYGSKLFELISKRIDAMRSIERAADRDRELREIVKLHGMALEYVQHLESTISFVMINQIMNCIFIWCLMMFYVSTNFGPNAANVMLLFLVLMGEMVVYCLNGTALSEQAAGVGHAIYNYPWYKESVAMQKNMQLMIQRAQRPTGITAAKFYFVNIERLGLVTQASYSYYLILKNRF
# T1 sequence (Q178U6 1-478 partner): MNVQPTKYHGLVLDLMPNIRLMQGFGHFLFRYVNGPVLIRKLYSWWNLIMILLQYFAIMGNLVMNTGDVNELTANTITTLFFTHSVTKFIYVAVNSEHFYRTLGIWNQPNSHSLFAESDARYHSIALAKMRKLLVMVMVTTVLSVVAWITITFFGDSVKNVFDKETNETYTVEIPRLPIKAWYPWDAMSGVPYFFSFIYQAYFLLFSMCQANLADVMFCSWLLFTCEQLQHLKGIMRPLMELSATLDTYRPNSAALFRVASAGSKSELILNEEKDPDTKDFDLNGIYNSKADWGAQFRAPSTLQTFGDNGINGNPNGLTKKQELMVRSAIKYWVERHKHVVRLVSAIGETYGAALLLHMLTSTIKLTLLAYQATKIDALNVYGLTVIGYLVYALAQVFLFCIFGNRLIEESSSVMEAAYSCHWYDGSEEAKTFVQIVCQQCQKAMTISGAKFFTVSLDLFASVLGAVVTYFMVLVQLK
# Excerpt: (§1) The coding regions of ten AaegOR genes of interest (S3 File) and AaegOrco were synthesized by Twist Bioscience (San Francisco, CA, USA) and cloned into the pENTR plasmid. The Gateway LR directional cloning system (Invitrogen Corp., Carlsbad, CA, USA) was utilized to subclone AaegOR coding regions into the pSP64t-RFA oocyte expression plasmid. Plasmids were purified using the GeneJet Plasmid Miniprep Kit (ThermoFisher Scientific, Waltham, MA, USA). Purified plasmids were sequenced in both directions to confirm coding regions.
# (§2) Chemical compounds (S6 File) used in the deorphanization of AaegORs were purchased from Acros Organics (Morris, NJ, USA), Alfa Aesar (Ward Hill, MA, USA), and ThermoFisher Scientific (Waltham, MA, USA) at the highest purity available. Compounds were stored as 1M stocks in 100% DMSO. Serial dilutions of each compound were prepared in 10% DMSO and blended by chemical class.
# (§3) pSP64t-RFA: AaegOR clones were linearized using Xbal, and cRNAs were synthesized using the mMESSAGE mMACHINE ® SP6 kit (Life Technologies, Carlsbad, CA, USA). Xenopus laevis stage V-VII oocytes purchased from Xenopus1 (Dexter, MI, USA) were stored at 18°C in Incubation medium (ND96 96 with 5% dialyzed horse serum, 50μg/mL gentamycin, 100μg/mL streptomycin, 100μg/mL penicillin, and 550μg/mL sodium pyruvate). 30nL of cRNA was injected into multiple oocytes using a microinjection syringe pump (World Precision Instruments, Sarasota, FL, USA) maintained at 18°C for 48–72 hrs. Odorant blends were perfused across individual oocytes for 10–15 seconds, held at a resting membrane potential of -80 mV using an OC-725C oocyte clamp (Warner Instruments, LLC, Hamden, CT, USA). Induced currents were measured indirectly using the two-electrode voltage clamp technique (TEVC). Following each stimulus, currents were allowed to return to baseline before further stimulation. Data was captured using the Digidata 1550 B digitizer and PClamp10 software (Molecular Devices, San Jose, CA, USA). Concentration-response curves were generated by perfusing unitary odorants over oocytes at increasing concentrations from [10^-3M] to [10^-9M]. Data were analyzed using GraphPad Prism 8 (GraphPad Software Inc., La Jolla, CA, USA). At least two biological replicates were conducted at each concentration and for each compound. Data for at least seven oocytes responding to each compound was analyzed (S7 File).
# AaegOR15 = target: T2, AaegOR15 (Aedes aegypti, UniProt A0A6B9QIR2); assay: Two-electrode voltage clamp of Xenopus laevis oocytes expressing AaegOR15/Orco (blends, unitary compounds, concentration-response); conditions: unitary compounds of Alcohols 2; for Raw data (Responses in nA), compounds of blend Alcohols 2: individual oocytes 1-10 (replicates); for Normalized response, compounds of blend Alcohols 2, Average: average of 10 oocytes, 1-hexanol = 100; for Normalized response, compounds of blend Alcohols 2: individual oocytes 1-10, normalized to the largest response of each oocyte (1-hexanol = 100)
# T2 sequence (A0A6B9QIR2 1-390): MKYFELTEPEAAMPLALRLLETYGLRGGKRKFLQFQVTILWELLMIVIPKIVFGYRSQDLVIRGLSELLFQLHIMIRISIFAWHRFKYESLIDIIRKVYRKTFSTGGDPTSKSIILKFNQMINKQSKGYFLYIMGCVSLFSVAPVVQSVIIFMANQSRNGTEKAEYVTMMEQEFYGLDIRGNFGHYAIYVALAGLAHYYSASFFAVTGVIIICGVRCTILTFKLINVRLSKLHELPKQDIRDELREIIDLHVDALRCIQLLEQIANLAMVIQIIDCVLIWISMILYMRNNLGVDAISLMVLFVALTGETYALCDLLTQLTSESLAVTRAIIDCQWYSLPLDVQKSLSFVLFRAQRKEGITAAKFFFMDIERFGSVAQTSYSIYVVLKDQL
# T2 sequence (Q178U6 1-478 partner): T1 sequence (Q178U6 1-478 partner)
# Excerpt: as §1, §2, §3
# AaegOR28 = target: T3, AaegOR28 (Aedes aegypti, UniProt Q0IGE1); assay: Two-electrode voltage clamp of Xenopus laevis oocytes expressing AaegOR28/Orco (blends, unitary compounds, concentration-response); conditions: for Raw Data (Responses in nA), Alcohols 3 unitary compounds / Normalized response, Average, Alcohols 3 unitary compounds / Normalized response, Alcohols 3 unitary compounds / Raw Data (Responses in nA), concentration-response: AaegOR28; for Raw Data (Responses in nA), Alcohols 3 unitary compounds / Normalized response, Average, Alcohols 3 unitary compounds / Normalized response, Alcohols 3 unitary compounds: compounds of blend Alcohols 3; for Raw Data (Responses in nA), Alcohols 3 unitary compounds: individual oocytes 1-10; for Normalized response, Average, Alcohols 3 unitary compounds: average of 10 oocytes; for Normalized response, Alcohols 3 unitary compounds: individual oocytes 1-10, normalized to largest response of each oocyte; for Raw Data (Responses in nA), concentration-response: individual oocytes 1-8
# T3 sequence (Q0IGE1 1-394): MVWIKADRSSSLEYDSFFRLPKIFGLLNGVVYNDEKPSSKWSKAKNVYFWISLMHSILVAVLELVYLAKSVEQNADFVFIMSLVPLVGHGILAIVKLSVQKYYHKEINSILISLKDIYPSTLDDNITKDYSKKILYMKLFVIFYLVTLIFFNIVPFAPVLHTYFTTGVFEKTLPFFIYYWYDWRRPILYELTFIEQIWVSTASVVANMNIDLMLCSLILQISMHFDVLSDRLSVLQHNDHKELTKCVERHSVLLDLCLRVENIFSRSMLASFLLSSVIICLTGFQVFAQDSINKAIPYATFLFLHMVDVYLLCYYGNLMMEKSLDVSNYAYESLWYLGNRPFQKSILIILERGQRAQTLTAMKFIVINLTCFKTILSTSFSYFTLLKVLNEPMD
# T3 sequence (Q178U6 1-478 partner): T1 sequence (Q178U6 1-478 partner)
# Excerpt: as §1, §2, §3
# AaegOR55 = target: T4, AaegOR55 (Aedes aegypti, UniProt Q16T12); assay: Two-electrode voltage clamp of Xenopus laevis oocytes expressing AaegOR55/Orco (blends, unitary compounds, concentration-response); conditions: AaegOR55, compounds of blend Indoles 1
# T4 sequence (Q16T12 10-392): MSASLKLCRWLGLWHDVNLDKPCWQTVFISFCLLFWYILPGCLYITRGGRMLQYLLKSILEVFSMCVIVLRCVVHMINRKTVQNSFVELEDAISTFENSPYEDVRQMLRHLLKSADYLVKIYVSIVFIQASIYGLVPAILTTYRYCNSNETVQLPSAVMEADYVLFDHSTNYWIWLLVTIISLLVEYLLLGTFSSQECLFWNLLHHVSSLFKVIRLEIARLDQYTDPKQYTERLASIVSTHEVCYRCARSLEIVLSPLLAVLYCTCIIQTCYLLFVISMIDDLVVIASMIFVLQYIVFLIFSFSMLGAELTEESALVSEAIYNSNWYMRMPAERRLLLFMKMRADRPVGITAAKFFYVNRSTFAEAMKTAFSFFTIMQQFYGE
# T4 sequence (Q178U6 1-478 partner): T1 sequence (Q178U6 1-478 partner)
# Excerpt: as §1, §2, §3
Compound,"Raw data (Responses in nA), unitary compounds of Indoles 1, Alcohols 1, Alcohols 3 (AaegOR13; individual oocytes 1-7)","Raw data (Responses in nA), compounds of blend Alcohols 2 (AaegOR15)","Raw Data (Responses in nA), Alcohols 3 unitary compounds (AaegOR28)",other results
"CC(C)C12CCC(C)(CC1)O2 [1,4-Cineole]",0.0 nA,0.0 nA (6×) and 10.0 nA (4×),0 nA,–
"CC12CCC(CC1)C(C)(C)O2 [1,8-cineole]",0.0 nA,0.0 nA (3×) and 5.0 nA (3×) and 10.0 nA (4×),5 nA and 0 nA (9×),–
C=C[C@](C)(O)CCC=C(C)C [(R)-(-)-linalool],–,0.0 nA (3×) and 10.0 nA (2×) and 20.0 nA and 25.0 nA and 40.0 nA (2×) and 15.0 nA,10 nA (5×) and 5 nA (4×) and 20 nA,"Normalized response, compounds of blend Alcohols 2, Average (AaegOR15): 2.4; Normalized response, compounds of blend Alcohols 2 (AaegOR15): 0.0 (3×) and 1.4 and 2.6 and 3.7 (2×) and 1.7 and 5.4 and 5.5; Normalized response, Average, Alcohols 3 unitary compounds (AaegOR28): 25.1; Normalized response, Alcohols 3 unitary compounds (AaegOR28): 33.3 and 28.6 and 50.0 and 25.0 and 20.0 and 16.7 and 12.5 and 22.2 (2×) and 20"
C=CCc1ccc(O)c(OC)c1 [Eugenol],20.0 nA and 430.0 nA and 105.0 nA and 220.0 nA and 160.0 nA (2×) and 100.0 nA,0.0 nA (2×) and 5.0 nA and 10.0 nA (3×) and 15.0 nA (2×) and 30.0 nA and 20.0 nA,0 nA,–
C=CC(C)(O)CC/C=C(\C)CC/C=C(\C)CCC=C(C)C (stereo not shown) [Geranyl Linalool],0.0 nA,0.0 nA (7×) and 10.0 nA (3×),0 nA,"Normalized response, unitary compounds, Average (AaegOR13; average of oocytes 1-7): 0.0; Normalized response, unitary compounds of Indoles 1, Alcohols 1, Alcohols 3 (AaegOR13; normalized per oocyte, individual oocytes 1-7): 0.0; Normalized response, compounds of blend Alcohols 2, Average (AaegOR15): 0.4; Normalized response, compounds of blend Alcohols 2 (AaegOR15): 0.0 (7×) and 1.3 and 0.9 and 1.7; Normalized response, Average, Alcohols 3 unitary compounds (AaegOR28): 0.0; Normalized response, Alcohols 3 unitary compounds (AaegOR28): 0.0 (9×) and 0"
C=CC1(C)CCC(C(C)(C)O)O1 (stereo not shown) [Linalool Oxide],–,0.0 nA (6×) and 10.0 nA (2×) and 5.0 nA (2×),0 nA,–
COC(=O)c1c[nH]c2ccccc12 [methylindole-3-carboxylate],–,–,–,"Normalized response, Average, Indoles 1 unitary compounds (AaegOR55; average of 7 oocytes): 5.2; Raw Data (Responses in nA), Indoles 1 unitary compounds (AaegOR55; individual oocytes (Oocyte 1-7)): 20.0 nA and 10.0 nA (5×) and 15.0 nA; Normalized response, Indoles 1 unitary compounds (AaegOR55; individual oocytes (Oocyte 1-7), normalized to the strongest compound per oocyte): 8.5 and 7.1 and 4.0 and 3.3 and 5.4 and 4.9 and 3.4"
"CCC(C)(O)CCCC(C)C (stereo not shown) [tetrahydrolinalool, Tetrahydrolinalool]",0.0 nA,0.0 nA (3×) and 20.0 nA (4×) and 40.0 nA and 10.0 nA and 5.0 nA,30 nA (2×) and 25 nA and 35 nA and 20 nA (2×) and 50 nA and 40 nA and 45 nA and 90 nA,"EC50 (AaegOR28; AaegOR28/Orco expressing oocytes, TEVC, concentration-response of normalized current): 44.1 µM; Raw Data (Responses in nA), concentration-response (AaegOR28; concentration 1e-6): 5 nA (4×) and 0 nA (2×) and 10 nA and 20 nA; Raw Data (Responses in nA), concentration-response (AaegOR28; concentration 5e-6): 30 nA and 10 nA (2×) and 20 nA (4×) and 50 nA; Raw Data (Responses in nA), concentration-response (AaegOR28; concentration 1e-5): 40 nA (3×) and 30 nA (2×) and 50 nA and 45 nA and 95 nA; Raw Data (Responses in nA), concentration-response (AaegOR28; concentration 5e-5): 150 nA and 200 nA and 70 nA and 230 nA and 220 nA and 90 nA and 180 nA and 260 nA; Raw Data (Responses in nA), concentration-response (AaegOR28; concentration 0.0001): 290 nA and 320 nA and 140 nA and 330 nA and 400 nA and 100 nA and 220 nA and 310 nA; Raw Data (Responses in nA), concentration-response (AaegOR28; concentration 0.0005): 380 nA and 530 nA and 180 nA and 400 nA and 480 nA and 105 nA and 230 nA and 340 nA; Raw Data (Responses in nA), concentration-response (AaegOR28; concentration 0.001): 400 nA and 440 nA (2×) and 200 nA and 500 nA and 110 nA and 350 nA and 300 nA"
isoeugenol,0.0 nA and 110.0 nA and 25.0 nA and 40.0 nA and 35.0 nA (2×) and 15.0 nA,0.0 nA (5×) and 10.0 nA (2×) and 20.0 nA (3×),0 nA,–

# Reference: article PMC11073699, “Odorant receptors for floral- and plant-derived volatiles in the yellow fever mosquito, Aedes aegypti (Diptera: Culicidae)” (PLOS ONE, 2024)
